{"source": "patent US6280763A", "about": "“Apparatus and method for transdermal delivery of bupropion” (priority 1999, dated 2001)", "key": {"mice": {"system": "mice", "conditions": "metabolites identified in urine; cited from earlier work"}, "[1]": {"conditions": "cited from earlier work"}, "[2]": {"conditions": "cited from earlier work; for Half-lives (t1/2app): human, in vivo"}, "[3]": {"conditions": "in vivo; cited from earlier work"}, "[4]": {"conditions": "rats; cited from earlier work"}, "[5]": {"conditions": "humans; cited from earlier work"}, "[6]": {"conditions": "dog, cited from earlier work"}, "[7]": {"conditions": "dogs; cited from earlier work"}, "[8]": {"conditions": "rat; cited from earlier work"}, "albumin": {"system": "albumin", "conditions": "cited from earlier work"}, "[9]": {"test": "drug content of 80% saturated donor solution in propylene glycol", "format": "physicochemical", "conditions": "80% of saturation, saturated at 32° C.", "description": "For standardization, saturated solutions of bupropion in propylene glycol were made and 80% of the saturated solution was used as donor solutions. 1,100 mg bupropion has been suspended in 6.0 ml propylene glycol and was vortexed at 90 rpm for 68 hrs at 32° C. in a thermostated shaking cupboard. Controls have been done every 24 hrs to assure that sufficient undissolved drug was in the vessel. Thereafter the suspension was centrifuged (3,000 rpm) for 10 minutes and the clear supernatant was used as saturated solution.\nFor the diffusion experiments the donor solutions were freshly prepared for each experiment, 550 mg of the bupropion base were suspended in 3.0 ml propylene glycol (PG) and treated as previously described.\nA spectroflow 400 pump (Separations, Hendrik Ido Ambacht, The Netherlands) was used to deliver the mobile phase, consisting of acetronitrile 0.1 m KF2 PO4 pH3 20:80 (v/v) with a flow rate of 0.8 ml/min. The mobile phase was degassed with a vacuum pump and chromatography was performed at ambient temperature. Sample amounts of 20 μl were injected with a Gilson model 321 autosampler (Gilson Middleton, Wisconsin USA) with a 20 microliter loop built in onto a inertsil 5 ODS column (Chrompack Nederland BV, Bergen op Zoom, The Netherlands). […] Bupropion base was detected by UV absorption at 310 nm using a spectra 100 spectrophometer (Spectra-Physics, Breda, The Netherlands). […]"}, "[10]": {"conditions": "rats; cited from earlier work", "remark": "listed apart in the source"}, "[11]": {"conditions": "mouse, cited from earlier work"}, "[12]": {"conditions": "oral administration; cited from earlier work"}}, "note": "Values joined by “and” are separate entries in the source; they are usually repeats but may differ in a detail not shown here. Equal entries are not always repeated. Structures can show the parent of a compound that is named as a salt. Where two headings read alike, the source gives them in different places."}
{"smiles": "C[C@H](NC(C)(C)C)[C@H](O)c1cccc(Cl)c1", "note": "(relative stereo) [EB]", "values": [{"measurement": "activity in mice", "setting": "mice", "value": "have shown activity in mice"}, {"measurement": "quantifiability after oral dose", "setting": "[1]; in vivo, po", "value": "not quantifiable"}, {"measurement": "Half-lives (t1/2app)", "setting": "[2]", "value": "61.4 ± 21.6", "unit": "h"}]}
{"smiles": "C[C@@H](NC(C)(C)C)[C@H](O)c1cccc(Cl)c1", "note": "(relative stereo) [TB]", "values": [{"measurement": "antidepressive effect potency relative to parent medicament", "setting": "[3]", "value": "half as parent medicament"}, {"measurement": "activity in mice", "setting": "mice", "value": "have shown activity in mice"}, {"measurement": "kinetics relative to MM", "setting": "[1]; in vivo, po", "value": "parallel that of MM"}, {"measurement": "Half-lives (t1/2app)", "setting": "[2]", "value": "38.8 ± 7.6", "unit": "h"}]}
{"smiles": "C[C@H](NC(C)(C)CO)[C@H](O)c1cccc(Cl)c1", "note": "(relative stereo) [erythro amino diol]", "values": [{"measurement": "activity in mice", "setting": "mice", "value": "have shown activity in mice"}, {"measurement": "quantifiability after oral dose", "setting": "[1]; in vivo, po", "value": "not quantifiable"}]}
{"smiles": "CC1NC(C)(C)COC1(O)c1cccc(Cl)c1", "note": "(centres unmarked) [HB]", "values": [{"measurement": "antidepressive effect potency relative to parent medicament", "setting": "[3]", "value": "half as potent"}, {"measurement": "activity in mice", "setting": "mice", "value": "have shown activity in mice"}, {"measurement": "AUC relative to medicament drug", "setting": "[1]; single oral dose of bupropion", "value": "fifteen times"}, {"measurement": "Cmax relative to medicament drug", "setting": "[1]; single oral dose of bupropion", "value": "three times"}, {"measurement": "speed of appearance in the systemic circulation relative to parent", "setting": "[1]; single oral dose", "value": "almost as fast"}]}
{"smiles": "CC(NC(C)(C)C)C(=O)c1cccc(Cl)c1", "note": "(centres unmarked) [bupropion hydrochloride]", "values": [{"measurement": "extent of metabolism", "setting": "[4]", "value": "highly metabolized"}, {"measurement": "extent of metabolism", "setting": "[5]", "value": "highly metabolized"}]}
{"smiles": "CC(NC(C)(C)C)C(=O)c1cccc(Cl)c1", "note": "(centres unmarked) [bupropion]", "values": [{"measurement": "reductions (induction of own metabolism)", "setting": "[6]; two different dose levels, over one year of treatment", "value": "76% and 90%"}, {"measurement": "induction of its own metabolism", "setting": "[6]", "value": "induces its own metabolism"}, {"measurement": "absolute bioavailability", "setting": "[7]", "value": "five to twenty"}, {"measurement": "first pass metabolism", "setting": "[1]; in vivo", "value": "very rapid first pass metabolism"}, {"measurement": "dose proportionality of drug blood concentration", "setting": "[1]; oral dosage, 100 to 250 mgs", "value": "dose proportional from 100 to 250 mgs"}, {"measurement": "biological half life", "setting": "[1]; oral dosage", "value": "approximately 14 hours"}, {"measurement": "biological half life, range", "setting": "[1]; oral dosage", "value": "8-24 hours"}, {"measurement": "time at which Cmax occurs", "setting": "[1]; oral dosage", "value": "approximately 2 hours"}, {"measurement": "oral dose kinetics model", "setting": "[1]; single oral dose", "value": "best described by a 2 compartment open model with first order absorption"}, {"measurement": "induction of its own metabolism", "setting": "[8]", "value": "induces its own metabolism"}, {"measurement": "half-life change after multiple dosing", "setting": "[2]; elderly patients, after multiple dosing", "value": "did not change significantly"}, {"measurement": "bound to albumin", "setting": "albumin", "value": 80, "unit": "%"}, {"measurement": "drug content of 80% saturated solution", "setting": "[9]", "value": 104, "unit": "mg/ml PG"}, {"measurement": "absolute bioavailability", "setting": "[10]", "value": "five to twenty"}, {"measurement": "reduction (induction of own metabolism)", "setting": "[11]; over ten days", "value": 58, "unit": "%"}, {"measurement": "induction of its own metabolism", "setting": "[11]", "value": "induces its own metabolism"}]}
{"smiles": "CC(NC(C)(C)C)C(=O)c1cccc(Cl)c1", "note": "(centres unmarked) [carbon 14 bupropion]", "values": [{"measurement": "excreted unchanged", "setting": "[12]", "value": "less than 0.5%"}, {"measurement": "radioactivity recovered in the feces", "setting": "[12]", "value": 10, "unit": "%"}, {"measurement": "radioactivity recovered in the urine", "setting": "[12]", "value": 87, "unit": "%"}]}
